From patent US10166225B2, “Method for treating osteoporosis” (Exelixis, Inc., priority 2011, dated 2019) come the findings set out here.

Entries after “also recorded” stand apart in the source; their conditions may differ.

The subject of series [1] is KS483 mouse osteoprogenitor cells. Description: Osteoblast differentiation assay (cellular ALP activity at day 8). The class given is cell-based. The method, then:
In the third part, KS483 mouse osteoprogenitor cells were cultured for 8 days, after which the formed mature osteoblasts were quantitated by measuring the amount of intracellular alkaline phosphatase (ALP) activity. […] The effects on osteoblasts were studied using KS483 mouse osteoprogenitor cells that can be induced to differentiate into bone-forming osteoblasts. […] In the osteoblast differentiation assay, the cells were cultured for 8 days, after which the formed mature osteoblasts were quantitated by measuring the amount of intracellular alkaline phosphatase (ALP) activity. […] A culture system was established that can be used as an in vitro model for studying the effects of anabolic and estrogen-like compounds on osteoblast differentiation and activity. In this culture system mouse KS483 cells first proliferate and then differentiate into osteoblasts capable of forming mineralized bone nodules in the presence of ascorbic acid and ß-glycerophosphate (Fagerlund et al. 2009). The test and reference compounds are added into the cell cultures concomitantly with the medium change, and their effects on the differentiation and activity of osteoblasts are determined. Cellular ALP, a marker of osteoblast differentiation, is determined from the cell lysates as described earlier (Lowry et al. 1954). Secreted PINP, a marker of organic bone matrix formation, is determined from the culture medium using a commercially available method (Rat/Mouse PINP EIA, IDS Ltd, Boldon, UK). Calcium deposition, an index of inorganic bone matrix formation, is measured using a commercially available calcium assay (Roche Diagnostics). Mouse KS483 cells were cultured in T-75 tissue culture flasks in aMEM supplemented with 10% charcoal-stripped fetal bovine serum until 80-90% confluence. The cells were incubated in a CO2 incubator in humidified atmosphere of 95% air and 5% carbon dioxide at 37° C. After reaching 80-90% confluence, subcultures were prepared. Cells were removed from the flasks with trypsin treatment and counted. For induction of the maturation of osteoblasts and bone formation, the immature osteoblastic cells were plated in type I collagen-coated 96-well plates. The cells were cultured for 8 days with a supplement of ascorbic acid ([…]), and half of the media was changed every 3-4 days. The test compound and control substance (E2) were added in the beginning of the culture period and when the medium was changed. The cultures were stopped at day 8 by removing the culture media from the wells, and cell lysates were prepared. Cellular ALP activity and total protein content (Protein Assay, Bio-Rad Laboratories Inc, CA, USA) were quantitated by using VICTOR2™ Multilabel Counter (PerkinElmer, Waltham, Mass., USA).

Series [2] deals with human bone marrow-derived CD34+ osteoclast precursor cells. Nature of the series: Osteoclast differentiation assay (secreted TRACP 5b at day 7). The class given is cell-based. The method, then: The study was performed in four parts. In the first part, human bone marrow-derived CD34+ osteoclast precursor cells were cultured on bovine bone slices for 7 days, after which the formed osteoclasts were quantitated by measuring tartrate-resistant acid phosphatase 5b activity (TRACP 5b) in the culture medium.
The objective of this study was to investigate the effects of Compound 1 selected by the Sponsor on differentiation and activity of human osteoclasts and mouse osteoblasts in vitro. The effects on osteoclasts were studied using a model where bone marrow-derived human osteoclast precursor cells are cultured on bovine bone slices for 7 days in conditions favouring osteoclast differentiation, and allowed to differentiate into bone-resorbing osteoclasts. After completion of osteoclast differentiation at day 7, the culture medium was removed and new culture medium favouring osteoclast activity was added into the wells. The mature osteoclasts were then cultured for an additional 3 days, allowing them to resorb bone. In the osteoclast differentiation assay, the test compounds and a reference inhibitor osteoprotegerin (OPG) were added into cultures at day 0. In the osteoclast activity assay, the test compounds and a reference inhibitor E64 were added into cultures at day 7. Seven concentrations in 8 replicates were tested in both assays. Tartrate-resistant acid phosphatase 5b activity (TRACP 5b) was measured from the culture medium collected at day 7 as an index of the number of osteoclasts formed in each well during the differentiation period. C-terminal cross-linked telopeptides of type I collagen (CTX) was measured from the culture medium collected at day 10 to quantitate bone resorption during days 7-10.
A human osteoclast culture system was developed for use in this study where CD34+ osteoclast precursor cells derived from human bone marrow (Poietics® Human Osteoclast Precursors, Lonza, Walkersville, USA) are cultured on bovine bone slices in the presence of appropriate growth factors, including M-CSF and RANK-ligand (Rissanen et al. 2009). The cells are first allowed to differentiate into mature bone-resorbing osteoclasts, and the formed osteoclasts are then allowed to resorb bone. The test and reference compounds are added into the cell cultures at the beginning of the differentiation and/or the resorption period, and their effects on the differentiation and/or resorbing activity of osteoclasts are determined.
Secreted TRACP 5b is determined from the culture medium after the differentiation period using a commercially available method (BoneTRAPÒ, IDS Ltd, Boldon, UK). Secreted TRACP 5b describes accurately the number of osteoclasts formed in each well during the differentiation period. CTX is determined from the culture medium after the resorption period using a commercially available method (CrossLapsÒ for cultures, IDS Ltd, Boldon, UK). CTX describes accurately the amount of bone collagen degradation products released into the culture medium in each well during the resorption period.
In this study, human bone marrow-derived CD34+ stem cells (10000 cells/well) were suspended in culture medium and allowed to attach to bovine bone slices in 96-well tissue culture plates. The culture medium (containing 10% FBS, OCP BulletKit® Lonza, Walkersville, USA) was supplemented with appropriate amounts of important growth factors favoring osteoclast differentiation and activity, including M-CSF (33 ng/ml, OCP BulletKit® Lonza, Walkersville, USA) and RANK-ligand (66 ng/ml, OCP BulletKit® Lonza, Walkersville, USA) in 200 μl of medium. The cells were incubated in a CO2 incubator in humidified atmosphere of 95% air and 5% carbon dioxide at 37° C. for 7 days. The test compounds and reference compound OPG were added at day 0. Supernatants collected at day 7 were stored at −70° C. until analysis of TRACP 5b. TRACP 5b was measured from the culture medium (20 μl/sample) using VICTOR2™ Multilabel Counter (PerkinElmer, Waltham, Mass., USA). […]

`COc1cc2nccc(Oc3ccc(NC(=O)C4(C(=O)Nc5ccc(F)cc5)CC4)cc3)c2cc1OC` [Compound 1, N-(4-{[6,7-bis(methyloxy)quinolin-4-yl]oxy}phenyl)-N′-(4-fluorophenyl)cyclopropane-1,1-dicarboxamide]: the “ALP values / osteoblast differentiation” value in series [1] (3.0 μM) was “decreased; also recorded: inhibitory effects”; in series [1] (0.012, 0.037, 0.11, 0.33 and 1.0 μM) it was “increased; also recorded: dose-dependent stimulation”. For the same compound, the activity at 0.004 µM in series [1] (Mus musculus, Osteoblast, 192 h, 0.004 μM Compound 1, read-out: ALP Activity at Day 8, Percent Activity (%) Compared to BL) is 109%; in series [2] (Homo sapiens, Osteoclast, 168 h, 0.004 μM Compound 1, read-out: TRACP 5b Activity at Day 7, Percent Activity (%) Compared to BL) it was 85%. The activity at 0.012 µM turned out to be 113% in series [1] (Mus musculus, Osteoblast, 192 h, 0.012 μM Compound 1, read-out: ALP Activity at Day 8, Percent Activity (%) Compared to BL) and 80% in series [2] (Homo sapiens, Osteoclast, 168 h, 0.012 μM Compound 1, read-out: TRACP 5b Activity at Day 7, Percent Activity (%) Compared to BL). Besides, the activity at 0.037 µM in series [1] (Mus musculus, Osteoblast, 192 h, 0.037 μM Compound 1, read-out: ALP Activity at Day 8, Percent Activity (%) Compared to BL) worked out at 134%; in series [2] (Homo sapiens, Osteoclast, 168 h, 0.037 μM Compound 1, read-out: TRACP 5b Activity at Day 7, Percent Activity (%) Compared to BL) it was 74%. Further, the activity at 0.11 µM amounted to 181% in series [1] (Mus musculus, Osteoblast, 192 h, 0.11 μM Compound 1, read-out: ALP Activity at Day 8, Percent Activity (%) Compared to BL) and 45% in series [2] (Homo sapiens, Osteoclast, 168 h, 0.11 μM Compound 1, read-out: TRACP 5b Activity at Day 7, Percent Activity (%) Compared to BL). Besides, the activity at 0.33 µM in series [1] (Mus musculus, Osteoblast, 192 h, 0.33 μM Compound 1, read-out: ALP Activity at Day 8, Percent Activity (%) Compared to BL) came out at 166%; in series [2] (Homo sapiens, Osteoclast, 168 h, 0.33 μM Compound 1, read-out: TRACP 5b Activity at Day 7, Percent Activity (%) Compared to BL), 15%. Further, the activity at 1 µM came to 117% in series [1] (Mus musculus, Osteoblast, 192 h, 1.0 μM Compound 1, read-out: ALP Activity at Day 8, Percent Activity (%) Compared to BL) and 4% in series [2] (Homo sapiens, Osteoclast, 168 h, 1.0 μM Compound 1, read-out: TRACP 5b Activity at Day 7, Percent Activity (%) Compared to BL). The activity at 3 µM came out at 57% in series [1] (Mus musculus, Osteoblast, 192 h, 3.0 μM Compound 1, read-out: ALP Activity at Day 8, Percent Activity (%) Compared to BL) and 0% in series [2] (Homo sapiens, Osteoclast, 168 h, 3.0 μM Compound 1, read-out: TRACP 5b Activity at Day 7, Percent Activity (%) Compared to BL). Further, the “number of Hoechst and TRACP positive mononuclear cells (microscopic analysis)” value in series [2] (0.11 and 0.33 μM) is on record as “did not affect”; in series [2] (1.0 and 3.0 μM, effects at least partly cytotoxic), “decreased”. For the same compound, in series [2] (significant with 0.11, 0.33, 1.0 and 3.0 μM concentrations), the “effect on osteoclast differentiation” value is on record as “dose-dependent inhibition”.
